Results: patent publication US9730447B2, “Fungicidal amides” (E I DU PONT DE NEMOURS AND COMPANY, priority 2013, dated 2017)

What was measured:
Format in all cases: in vivo
[1] = test system: Puccinia recondite f. sp. tritici; test: Test D: preventive spray on wheat seedlings, Puccinia recondite f. sp. tritici (wheat leaf rust), visual disease rating; conditions: 100 = 100% disease control, 0 = no control, unmarked values
Method in brief: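 Wheat seedlings sprayed to run-off with 40 ppm (160 g ai/ha) or 10 ppm (40 g ai/ha) suspension in acetone/water with 250 ppm surfactant, inoculated next day with leaf rust spores. After 24 h saturated at 20 °C then 6 days at 20 °C, visual rating of disease control (0–100) relative to controls.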

[2] = test system: Stagonospora nodorum (also known as Septoria nodorum); test: Test B: preventive spray on wheat seedlings, Stagonospora nodorum (wheat glume blotch), visual disease rating; conditions: 100 = 100% disease control, 0 = no control, unmarked values
Source text: (§1) General protocol for preparing test suspensions for Tests A-E: the test compounds were first dissolved in acetone in an amount equal to 3% of the final volume and then suspended at the desired concentration (in ppm) in acetone and purified water (50/50 mix by volume) containing 250 ppm of the surfactant Trem® 014 (polyhydric alcohol esters). The resulting test suspensions were then used in Tests A-E. Compounds were sprayed with either a 40 ppm or 10 ppm (*) test suspension to the point of run-off on the test plants which is the equivalent of a rate of 160 g ai/ha or 40 g ai/ha, respectively.
The test suspension was sprayed to the point of run-off on wheat seedlings. The following day the seedlings were inoculated with a spore suspension of Stagonospora nodorum (also known as Septoria nodorum; the causal agent of wheat glume blotch) and incubated in a saturated atmosphere at 20° C. for 48 h, and then moved to a growth chamber at 20° C. for 6 days, after which time visual disease ratings were made.
(§2) Results for Tests A-E are given in Table A. In the Table, a rating of 100 indicates 100% disease control and a rating of 0 indicates no disease control (relative to the controls). A dash (-) indicates no test results.

[3] = test system: Erysiphe graminis f. sp. tritici; test: Test E: preventive spray on wheat seedlings, Erysiphe graminis f. sp. tritici (wheat powdery mildew), visual disease rating; conditions: 100 = 100% disease control, 0 = no control, unmarked values
Method in brief: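 Wheat seedlings were sprayed to run-off with 40 or 10 ppm suspension (160 or 40 g ai/ha) and dusted with spores the next day. They were then kept 8 days at 20 °C. Disease was rated visually as % control relative to untreated controls (0–100).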

[4] = test system: Septoria tritici; test: Test C: preventive spray on wheat seedlings, Septoria tritici (wheat leaf blotch), visual disease rating; conditions: 100 = 100% disease control, 0 = no control, unmarked values
Method in brief: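 Wheat seedlings sprayed to run-off at 40 ppm or 10 ppm (160 or 40 g ai/ha) in acetone/water with surfactant, inoculated with Septoria tritici spores next day. Held 48 h saturated at 24 °C, then 21 days at 20 °C. Visual rating scored as % disease control relative to controls.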

[5] = test system: Botrytis cinerea; test: Test A: preventive spray on tomato seedlings, Botrytis cinerea (gray mold), visual disease rating; conditions: 100 = 100% disease control, 0 = no control relative to controls, unmarked values
Source text: as §1
The test suspension was sprayed to the point of run-off on tomato seedlings. The following day the seedlings were inoculated with a spore suspension of Botrytis cinerea (the causal agent of gray mold on many crops) and incubated in a saturated atmosphere at 20° C. for 48 h, and moved to a growth chamber at 27° C. for 2 days, after which time visual disease ratings were made.
as §2

Compound	Test D disease control rating [1] [%]	Test B disease control rating [2] [%]	Test E disease control rating [3] [%]	Test C disease control rating [4] [%]	Test A disease control rating [5] [%]
COc1cc(OC)cc(-c2cnn(-c3ccc(-c4ccccc4NC(=O)c4cn(C)nc4C(F)F)cn3)c2)c1 [compound 10]	100	100	97	100	100
O=C(Nc1ccccc1-c1ccc(-n2ccc(-c3ccccc3)n2)nc1)c1ncccc1Cl [compound 53]	55	0	0	0	0
Cc1cnn(-c2ccc(-c3ccccc3NC(=O)c3ccccc3C(F)(F)F)cn2)c1 [compound 43]	74	99	92	98	94
O=C(Nc1ccccc1-c1cnc(-n2ccc(Br)n2)c(F)c1)c1ncccc1C(F)(F)F [compound 71]	100	100	100	100	94
Cn1cc(C(=O)Nc2ccccc2-c2cnc(-n3cc(Cl)cn3)c(Cl)c2)c(C(F)F)n1 [compound 62]	100	0	98	100	84
3-(trifluoromethyl)-N-[2-[6-[3-(trifluoromethyl)-1H-pyrazol-1-yl]-3-pyridazinyl]phenyl]-2-pyridinecarboxamide [Compound 59]	100	100	99	100	100
O=C(Nc1ccccc1-c1ccc(-n2cc(-c3cc(F)cc(F)c3)cn2)nc1)c1ncccc1C(F)(F)F [compound 28]	99	99	96	100	99
Cn1cc(C(=O)Nc2ccccc2-c2cnc(-n3ccc(-c4ccccc4)n3)c(F)c2)c(C(F)F)n1 [compound 76]	100	0	99	100	99
COc1cccc(C2CC(c3ccc(-c4ccccc4NC(=O)c4ncccc4C(F)(F)F)cn3)=NO2)c1 (racemic) [compound 18]	99	100	0	100	96
O=C(Nc1ccccc1-c1ccc(-n2ccc(C(F)(F)F)n2)nc1)c1nccnc1Cl [compound 25]	98	82	90	100	99
Cc1cc(C)n(-c2ccc(-c3ccccc3NC(=O)c3ncccc3C(F)(F)F)cn2)n1 [compound 52]	96	0	50	99	36
COc1ccc(-c2ccn(-c3ccc(-c4ccccc4NC(=O)c4cn(C)nc4C(F)F)cn3)n2)c(OC)c1 [compound 100]	100	60	69	87	58
N#Cc1ccn(-c2ncc(-c3ccccc3NC(=O)c3ncccc3C(F)(F)F)cc2F)n1 [compound 86]	100	0	79	98	89
O=C(Nc1ccccc1-c1ccc(-n2cc(Cl)cn2)nc1)c1ccccc1C(F)(F)F [compound 66]	89	0	0	18	32
Cn1cc(C(=O)Nc2ccccc2-c2ccc(-n3ccc(Br)n3)nc2)c(C(F)F)n1 [compound 11]	100	100	99	100	100
N-[2-[5-fluoro-6-[3-(trifluoromethyl)-1H-pyrazol-1-yl]-3-pyridinyl]phenyl]-3-(trifluoromethyl)-2-pyridinecarboxamide [Compound 50]	100	100	100	100	99
Cc1cc(-c2ccccc2NC(=O)c2ccccc2C(F)(F)F)cnc1-n1ccc(C(F)(F)F)n1 [compound 36]	100	98	99	100	28
Cc1cnn(-c2ccc(-c3ccccc3NC(=O)c3ccccc3C(F)(F)F)cn2)c1 [compound 44]	99	0	0	62	40
COc1cc(OC)cc(C2CC(c3ccc(-c4ccccc4NC(=O)c4ncccc4C(F)(F)F)cn3)=NO2)c1 (racemic) [compound 20]	99	100	0	96	89
O=C(Nc1ccccc1-c1ccc(C2=NOC(c3ccc(F)cc3)C2)nc1)c1ncccc1C(F)(F)F (racemic) [compound 6]	100	100	0	99	99
Cc1cc(-c2ccccc2NC(=O)c2cn(C)nc2C(F)F)cnc1-n1ccc(C(F)(F)F)n1 [compound 38]	100	100	100	100	90
O=C(Nc1ccccc1-c1cnc(-n2ccc(-c3ccccc3)n2)c(F)c1)c1ccccc1C(F)(F)F [compound 80]	88	0	0	100	0
Cn1cc(C(=O)Nc2ccccc2-c2cnc(-n3cc(Cl)cn3)c(F)c2)c(C(F)F)n1 [compound 74]	100	0	100	100	96
O=C(Nc1ccccc1-c1ccc(-n2ccc(C(F)(F)F)n2)nc1)c1ncccc1Cl [compound 23]	96	0	99	100	20
O=C(Nc1ccccc1-c1cnc(-n2ccc(C(F)(F)F)n2)c(Cl)c1)c1ccccc1C(F)(F)F [compound 33]	100	60	99	100	15
COc1ccccc1-c1ccn(-c2ccc(-c3ccccc3NC(=O)c3cn(C)nc3C(F)F)cn2)n1 [compound 98]	100	0	48	75	67
O=C(Nc1ccccc1-c1ccc(-n2ccc(C(F)(F)F)n2)nc1)c1nccnc1C(F)(F)F [compound 24]	100	100	100	100	99
